Data on four compounds can be found in patent publication US6908742B2, “Methods and kits for the detection of endotoxin” (priority 1996, dated 2005).

Assay [1] has as its target T1, A1 adenosine receptors in membranes from feline PAECs (Felis catus, UniProt A0ABI7XJE9).
T1 sequence (A0ABI7XJE9 1-326): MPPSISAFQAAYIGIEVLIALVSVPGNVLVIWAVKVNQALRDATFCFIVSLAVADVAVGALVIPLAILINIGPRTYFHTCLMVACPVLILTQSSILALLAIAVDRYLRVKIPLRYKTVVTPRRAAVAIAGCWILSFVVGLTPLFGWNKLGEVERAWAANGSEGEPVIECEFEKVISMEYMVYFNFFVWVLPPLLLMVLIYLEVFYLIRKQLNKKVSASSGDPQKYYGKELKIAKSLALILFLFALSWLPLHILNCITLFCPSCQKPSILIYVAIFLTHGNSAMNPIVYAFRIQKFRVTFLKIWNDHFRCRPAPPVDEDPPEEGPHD
Nature of the assay: Competition experiments for [3H] DPCPX in feline PAEC membranes. It counts as binding. The following applies: cultured feline PAEC membranes. As to the method: (§1) Feline PAECs were grown to confluency in […] culture plates. The confluent cells were washed twice with KSP buffer (10 mM KH2P04, 50 mM sucrose). The cells were scraped and suspended in KSP buffer at a concentration of 1×10^6 cells/ml in two conical centrifuge tubes. The tubes were centrifuged at 1000 g×2 minutes and the buffer discarded. The cells from one tube were then suspended in deoxygenated buffer (bubbled with N2 gas for 10 minutes) and bubbled with N2 gas for 30 seconds to insure hypoxic conditions. These cells were then incubated for 2 hours in this hypoxic buffer. Cells from the other tube were suspended in normal KSP buffer and incubated at 37° C. for 2 hours. At the end of incubation, cells were homogenized immediately for membrane preparation.
For membrane preparation, the cells were homogenized by sonication and centrifuged at 1000× g for 10 minutes. The supernatant was centrifuged again at 30,000× g for 30 minutes. […]
Radioligand binding data are analyzed with the use of Graph Pad Prism by nonlinear regression analysis equipped with a statistical package. Data are expressed as mean±SEM. Hill plots and Schild plots are determined for each species of LPS in competition experiments and are used as standard curves for the determinations of the concentration of endotoxin in samples with unknown concentrations of endotoxin.

The target in assay [2] is T2, A1 adenosine receptors in sheep brain membranes (Ovis aries, UniProt A0ACI6R3B7).
T2 sequence (A0ACI6R3B7 1-326): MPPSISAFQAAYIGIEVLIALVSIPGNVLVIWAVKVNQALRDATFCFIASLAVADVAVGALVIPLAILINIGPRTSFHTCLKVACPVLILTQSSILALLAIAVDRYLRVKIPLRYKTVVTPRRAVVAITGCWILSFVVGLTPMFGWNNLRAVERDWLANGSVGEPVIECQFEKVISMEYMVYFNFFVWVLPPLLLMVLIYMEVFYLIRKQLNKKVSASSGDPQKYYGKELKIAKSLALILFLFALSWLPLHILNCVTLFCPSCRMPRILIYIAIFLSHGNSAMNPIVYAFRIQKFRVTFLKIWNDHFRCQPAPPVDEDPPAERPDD
Nature of the assay: Saturation experiments with [3H] DPCPX or [3H] CCPA in sheep brain membranes. It counts as binding. How it is done: (§2) Frozen sheep brain (Pel Freeze, Rodgers, Ark.) or hamster brain (Harlan Bioproducts, Indianapolis, Ind.) was thawed and homogenized in 10 volumes of cold (4° C.), 0.32 M sucrose. The homogenate was centrifuged at 1,000× g for 10 minutes to remove the nuclear fraction. The supernatant was centrifuged at 30,000× g for 30 minutes. The resulting pellet was resuspended in 10 ml water and left on ice for 30 minutes to obtain synaptosomal membranes. The suspension was then centrifuged at 48,000× g for 10 minutes and the membranes resuspended in 50 mM Tris-HCl (pH 7.4) at a concentration of 8 mg protein/ml, frozen in liquid nitrogen, and stored at −20° C. until binding assay.
(§3) Binding of [^3H] DPCPX or [^3H] CCPA to membranes was carried out in an assay volume of 500 μl Tris-HCl, pH 7.4, MgCl2 (10 mM) (for membranes from feline PAECs only) containing [^3H] DPCPX or [^3H] CCPA (0.01 to 4 nM). Nonspecific binding of [^3H] DPCPX or [^3H] CCPA was determined in the presence of R-PIA (100 μM) or theophylline (1 mM), respectively. To remove endogenous adenosine, adenosine deaminase was present in all binding assays at a concentration of 0.2 U/ml. Incubations were performed for 2 hours at room temperature for sheep and hamster brain membranes and 4° C. for feline PAEC membranes. Incubations were terminated by rapid removal of the incubation buffer by filtration through Whatman GF/B filters (Whatman Inc., Clifton, N.J.). The membrane bound radioactivity was measured by scintillation counting of the filter paper. To determine Kd, Bmax, and nonspecific binding in sheep and hamster brain and feline PAEC membranes, experiments are performed in duplicate.

Assay [3] addresses T1, A1 adenosine receptors in membranes from feline PAECs. Nature of the assay: Saturation experiments with [3H] DPCPX in feline PAEC membranes. It is filed as binding. As to the method:
as §1
For membrane preparation, the cells were homogenized by sonication and centrifuged at 1000× g for 10 minutes. The supernatant was centrifuged again at 30,000× g for 30 minutes. The membrane fraction was reconstituted with Tris buffer for radioligand binding studies.
as §3

The target of assay [4] is T3, A1 adenosine receptors in hamster brain membranes (Mesocricetus auratus, UniProt A0A1U8BVR4).
T3 sequence (A0A1U8BVR4 1-326): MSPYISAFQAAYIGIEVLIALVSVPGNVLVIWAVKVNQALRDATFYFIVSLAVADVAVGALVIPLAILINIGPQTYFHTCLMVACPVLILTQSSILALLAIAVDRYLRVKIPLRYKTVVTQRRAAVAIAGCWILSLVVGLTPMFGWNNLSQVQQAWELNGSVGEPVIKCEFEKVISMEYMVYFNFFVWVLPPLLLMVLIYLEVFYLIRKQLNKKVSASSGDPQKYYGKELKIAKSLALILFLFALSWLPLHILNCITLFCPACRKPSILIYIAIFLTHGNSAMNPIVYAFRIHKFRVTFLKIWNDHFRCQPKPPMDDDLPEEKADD
Nature of the assay: Saturation experiments with [3H] DPCPX or [3H] CCPA in hamster brain membranes. It counts as binding. As to the method: as §2, §3

Assay [5] addresses T4, A1 adenosine receptor (Homo sapiens, UniProt P30542).
T4 construct: host or cells: tissues (not specified)
T4 sequence (P30542 1-326): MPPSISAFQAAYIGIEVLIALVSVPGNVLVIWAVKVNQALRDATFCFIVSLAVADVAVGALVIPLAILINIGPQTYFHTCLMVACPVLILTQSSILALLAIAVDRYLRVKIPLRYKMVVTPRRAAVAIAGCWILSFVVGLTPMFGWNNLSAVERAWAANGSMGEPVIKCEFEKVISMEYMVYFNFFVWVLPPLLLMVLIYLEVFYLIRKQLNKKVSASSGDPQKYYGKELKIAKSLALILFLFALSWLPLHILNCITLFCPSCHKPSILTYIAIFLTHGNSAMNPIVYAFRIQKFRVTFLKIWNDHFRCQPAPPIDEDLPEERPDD
The following applies: in tissues; cited from earlier work.

As for `Nc1nc(Nc2ccccc2)nc2c1ncn2[C@@H]1O[C@H](CO)[C@@H](O)[C@H]1O` [CV 1808, 2-phenylaminoadenosine], the “displacement of bound [3H] DPCPX” value in assay [1] was “did not displace”.

Regarding `CCCn1c(=O)c2[nH]c(C3CCCC3)nc2n(CCC)c1=O` [[^3H]-DPCPX, [^3H]-1,3-dipropyl-8-cyclopentyladenosine xanthine], the Kd in assay [2] (sheep brain membranes) worked out at 0.37 nM; in assay [3] (hypoxia), 0.26 nM; in assay [3] (normoxia), 0.33 nM; in assay [4] (hamster brain membranes) it was 0.32 nM. The Bmax in assay [2] (sheep brain membranes, [3H]-DPCPX saturation) is given as 2251 fmoles/mg protein; in assay [3] (hypoxia), 1458 fmoles/mg protein; in assay [3] (normoxia), 1064 fmoles/mg protein; in assay [4] (hamster brain membranes, [3H]-DPCPX saturation), 3733 fmoles/mg protein.

Regarding `OC[C@H]1O[C@@H](n2cnc3c(NC4CCCC4)nc(Cl)nc32)[C@H](O)[C@@H]1O` [[^3H] CCPA, 2-chloro-N^6-cyclopentyladenosine], the “density of high affinity A1 adenosine receptors” value in assay [2] (sheep brain, determined using [3H] CCPA) was 1920 ± 250 fmol/mg; in assay [4] (hamster brain, determined using [3H] CCPA), 1630 ± 60 fmol/mg.

`CCCn1c(=O)c2[nH]c(C3CCCC3)nc2n(CCC)c1=O` [DPCPX, 1,3-dipropyl-8-cyclopentylxanthine]: the nonspecific binding entry in assay [5] is “less than 1%”.
